Measured values reported in patent publication US11014898B1, “Benzothiazepine compounds and their use as bile acid modulators” (Albireo AB, priority 2020, dated 2021).
pIC50: −log10 of the molar value.

Assays:
[1] = Bioavailability studies (iv and oral dosing, plasma LC-MS/MS); type: in vivo, mice (C57BL/6); conditions: male, mouse, C57BL/6 mice, single oral dose of 10 mg/kg, single intravenous dose of 1 mg/kg
Protocol: Male mice (C57BL/6 or CD1) or Wistar rats of 8-9 weeks old were used. For each test compound, two groups of 3 animals each were used. One group was administered a single intravenous dose of 1 mg/kg (vehicle 100% DMSO) through the tail vein and the other group was administered a single oral dose of 10 mg/kg through gavage needle. The group that was administered an oral dose was fasted overnight. Blood samples were collected after 0.083, 0.25, 0.5, 1, 2, 4, 6, 8 and 24 hours following intravenous administration, and after 0.25, 0.5, 1, 2, 4, 6, 8 and 24 hours following oral administration. Blood samples were taken from saphenous vein. 0.2% EDTA was used as the anticoagulant. The samples were analyzed by a discovery grade bioanalytical method developed for the estimation of test compound in plasma, using an LC-MS/MS system.

[2] = Bidirectional permeability assay (Caco-2 cells); type: in vitro ADME; conditions: human, Caco-2, pH 7.4, 10 μM in FaSSIF buffer, 120 minutes at 37° C.; for Papp A→B at 120 min, 10 μM: absorptive direction (A2B); for Papp B→A at 120 min, 10 μM: secretory direction (B2A)
Protocol: Caco-2 cells (Evotec) were seeded at a density of 70,000 cells/well in Millicell® 24-well cell culture insert plates and maintained in an incubator (37° C., 5% CO2, 95% RH) for 21 days with media change on alternate days.
Stock solutions (10 mM) of the test compounds, atenolol (low permeability marker), propranolol (high permeability marker) and digoxin (substrate for P-gp transport pathway) were prepared in dimethylsulfoxide (DMSO). An intermediate stock solution (1 mM) was prepared by diluting 10 μL of 10 mM master stock solution with 90 μL of neat DMSO. A working stock solution (10 μM) was prepared by diluting 50 μL of 1 mM with 4950 μL of FaSSIF buffer. Post addition of compounds to the FaSSIF, samples were subjected to sonication for 2 hours, and centrifuged at 4000 RPM for 30 minutes at 37° C. The 4 mL of resultant supernatant was directly used in the assay. The final DMSO concentration in the transport experiments was 1%.
On the day of assay, Caco-2 monolayers were washed twice with transport buffer (HBSS, pH 7.4) and pre-incubated for 30 min (37° C., 5% CO2, 95% RH) in an incubator. The electrical resistance of the monolayers was measured with a Millicell®-ERS system. Monolayers with trans-epithelial electrical resistance (TEER) values greater than 350 ohm·cm^2 were selected for the assay.
The assay was conducted in absorptive direction (A2B) and secretory (B2A) directions. Transport experiments were initiated by addition of transport assay buffer (FaSSIF buffer prepared in HBSS) consisting of compounds to the donor compartment (apical chamber A-B; basolateral chamber B-A) in duplicate (n=2) wells. Drug free HBSS buffer (pH 7.4) containing 1% bovine serum albumin (BSA) was introduced to the receiver (A-B-basolateral; B-A-Apical) compartments. The volumes of apical and basolateral compartments were 0.4 and 0.8 mL, respectively. After adding dosing solution, plates were incubated in an incubator for 120 minutes at 37° C. After 120 minutes, donor and receiver samples were collected and matrix matched (1:1, 30 μL study sample+30 μL blank buffer) with the opposite buffer. Dosing samples matrix matched (1:1, 30 μL study sample+30 μL blank buffer) with the opposite buffer. Samples were processed by adding acetonitrile containing internal standard (60 μL study sample+200 μL acetonitrile containing internal standard-Tolbutamide, 500 ng/mL). Samples were vortexed and centrifuged at 4000 rpm for 10 minutes. The obtained supernatant (100 μL) was diluted with 100 μL of water and transferred to fresh 96 well plates. The concentration of compounds in the samples was analyzed by liquid chromatography tandem mass spectrometry (LC-MS/MS) method using discovery grade bio-analytical method, as applicable.
The mean apparent permeability (Papp×10^−6 cm/sec) of the test compounds, atenolol, propranolol and digoxin were calculated as follows:
where dq/dt=rate of transport (rate of transport of compound in the receiver compartment), C0=initial concentration in the donor compartment, A=surface area of the effective filter membrane.

[3] = target: T1, Human IBAT (Homo sapiens, UniProt Q12908); experiment: IBAT (h) assay: 3H-taurocholic acid uptake in human IBAT-overexpressing cells; type: cell-based; conditions: 0.25 μM 3H-taurocholic acid and 5 μM cold taurocholic acid, 20 minutes, read-out: hIBAT IC50
T1 construct: expressed in transfected cells; cells kept under Puromycin selection
T1 sequence (Q12908 1-348): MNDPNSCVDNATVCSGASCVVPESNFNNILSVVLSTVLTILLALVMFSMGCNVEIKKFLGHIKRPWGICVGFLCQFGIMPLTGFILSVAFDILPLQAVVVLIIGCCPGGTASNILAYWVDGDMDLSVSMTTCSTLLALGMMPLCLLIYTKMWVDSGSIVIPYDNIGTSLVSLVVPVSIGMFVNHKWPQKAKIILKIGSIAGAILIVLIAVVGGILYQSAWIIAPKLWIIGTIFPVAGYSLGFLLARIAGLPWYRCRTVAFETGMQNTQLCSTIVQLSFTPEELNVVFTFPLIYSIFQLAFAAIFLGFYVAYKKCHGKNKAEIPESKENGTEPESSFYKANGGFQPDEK
Protocol: 10,000 cells (Human or Mouse IBAT-overexpressing cells) were seeded in 96-wells plate (Corning CLS3809) in 200 μL MEM-alpha medium (Gibco 12571-063) supplemented with 10% FBS (Gibco 10438026) containing Puromycin (Gibco A1113803) (10 μg/mL) and incubated at 37° C. in 5% CO2 for 48 hours. After incubation, media was decanted from the wells and cells were washed two times with 300 μL of basal MEM-alpha medium (FBS-free). After decanting basal MEM-alpha medium each time, plates were tapped against paper towel to ensure maximum removal of residual media. Test inhibitor dilutions (highest test concentration being 10 μM, 3-fold serial dilution, 10 points) prepared in DMSO (Sigma D2650) were added in incubation mix (maintaining 0.2% final DMSO concentration) containing 0.25 μM 3H-taurocholic acid (ARC ART-1368) and 5 μM of cold taurocholic acid (Sigma T4009). 50 μL of incubation mix containing test inhibitors was then added to the wells (in duplicate) and the plates were incubated for 20 minutes in a CO2 incubator at 37° C. After incubation, the reaction was stopped by keeping the plates on ice water mix for 2-3 minutes and then the incubation mix was aspirated completely from the wells. The wells were washed two times with 250 μL of chilled unlabelled 1 mM taurocholic acid dissolved in HEPES (Gibco 15630080)-buffered (10 mM) HBSS (Gibco 14175079) (pH 7.4). The plates were tapped against a paper towel after every wash to ensure maximum removal of blocking buffer.
100 μL of MicroScint-20 (PerkinElmer 6013621) was added to the wells and kept overnight at room temperature before reading the plates in TopCount NXT™ Microplate Scintillation and Luminescence Counter from PerkinElmer under 3H Test protocol (set at 120 seconds reading time per well).
All test compounds were provided in powder form at room temperature. 10 mM DMSO stocks of the test compounds were prepared, aliquoted and stored at −20° C. From the 10 mM DMSO stock of the compounds, a 3-fold serial dilution in DMSO was prepared to get a total of 10 dilutions of the test compounds. 0.5 μL of this dilution in DMSO was added to 250 μL of FBS-free basal media containing 3H-taurocholic acid and cold taurocholic acid to prepare the incubation mixture.

| Structure (SMILES) | bioavailability [1] | Papp A→B at 120 min, 10 μM [2] | Papp B→A at 120 min, 10 μM [2] | pIC50 [3] |
| --- | --- | --- | --- | --- |
| CCCCC1(CCCC)CN(c2ccc(C#N)cc2)c2cc(SC)c(OCC(=O)O)cc2S(=O)(=O)C1 [Example 5, 2-((3,3-dibutyl-5-(4-cyanophenyl)-7-(methylthio)-1,1-dioxido-2,3,4,5-tetrahydro-1,5-benzothiazepin-8-yl)oxy)acetic Acid] | 6% | 5.5 ×10⁻⁶ cm/s | 14.5 ×10⁻⁶ cm/s | 7.24 |
| CCCCC1(CC)CN(c2ccccc2)c2cc(N(C)C)c(OCC(=O)O)cc2S(=O)(=O)C1 (single isomer, unassigned) [Example 8, 2-((3-butyl-7-(dimethylamino)-3-ethyl-1,1-dioxido-5-phenyl-2,3,4,5-tetrahydro-1,5-benzothiazepin-8-yl)oxy)acetic Acid] | 26% | 7.9 ×10⁻⁶ cm/s | 23.7 ×10⁻⁶ cm/s | 8.05 |
